This is an account of results in patent US20230234906A1, “Use of 2-pentanone and specific receptor thereof in manufacture of products regulating cell functions” (Taihe Hospital, Hubei University of Medicine, priority 2022, published 2023).

In data set [1] the target is T1, specific receptor Or35a and the specific receptor Or83b (Drosophila melanogaster, UniProt Q9V3Q2+Q9VNB5).
T1 construct: P2A peptide (self-cleaving; remnant stays on the C-terminus of Or35a) (C); remnant stays on the C-terminus of Or83b) (C); expressed in transfected cells; acute brain slices
T1 sequence (Q9V3Q2 1-409): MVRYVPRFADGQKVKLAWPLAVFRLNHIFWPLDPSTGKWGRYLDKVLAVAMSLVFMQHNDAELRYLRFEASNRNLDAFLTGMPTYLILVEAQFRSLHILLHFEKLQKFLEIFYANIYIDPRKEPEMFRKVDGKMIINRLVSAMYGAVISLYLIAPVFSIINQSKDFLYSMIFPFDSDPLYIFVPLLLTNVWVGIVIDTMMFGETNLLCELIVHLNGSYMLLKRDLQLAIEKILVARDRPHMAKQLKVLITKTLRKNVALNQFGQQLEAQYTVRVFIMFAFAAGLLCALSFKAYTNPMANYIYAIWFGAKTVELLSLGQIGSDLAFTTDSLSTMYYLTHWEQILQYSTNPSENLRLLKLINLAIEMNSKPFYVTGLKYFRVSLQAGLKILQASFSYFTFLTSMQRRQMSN
T1 sequence (Q9VNB5 1-486): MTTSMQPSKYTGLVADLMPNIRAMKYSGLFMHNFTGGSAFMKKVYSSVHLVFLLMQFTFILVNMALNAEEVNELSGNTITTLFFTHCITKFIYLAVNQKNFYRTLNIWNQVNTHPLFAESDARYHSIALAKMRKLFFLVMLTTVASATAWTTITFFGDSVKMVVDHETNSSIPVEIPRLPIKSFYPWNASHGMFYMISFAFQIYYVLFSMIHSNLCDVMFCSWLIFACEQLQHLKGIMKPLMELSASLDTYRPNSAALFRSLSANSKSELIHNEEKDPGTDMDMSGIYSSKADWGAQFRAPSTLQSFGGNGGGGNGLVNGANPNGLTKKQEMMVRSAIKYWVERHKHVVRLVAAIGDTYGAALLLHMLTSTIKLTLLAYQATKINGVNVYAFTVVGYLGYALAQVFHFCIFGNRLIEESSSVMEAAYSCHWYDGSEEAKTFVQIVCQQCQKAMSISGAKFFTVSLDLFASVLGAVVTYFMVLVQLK
Nature of the data set: Calcium imaging experiment in mouse brain slices expressing the specific receptor of 2-pentanone. The class given is cell-based. The conditions noted are these: addition of 2-pentanone; 150 μm brain slices of C57 mice injected with Or35a/Or83b overexpression virus and calcium imaging virus; confocal microscope; FIG. 4A. The protocol: 1. Calcium imaging experiment: Adult C57 mice were anesthetized, fixed on a stereotaxic apparatus, and operated to expose the brain surface of the mice (1.5 mm behind the bregma, 1 mm aside, and injection depth of 2 mm). The overexpression virus (1 μl) constructed in Example 1 and the calcium imaging virus (0.5 μl) were simultaneously injected into the mouse brain using a microinjector. After 2 weeks of feeding, the brains of mice were removed. The brain tissues near the injection site were cut into 150 μm tissue slices using a vibrating microtome and placed in artificial cerebrospinal fluid with a mixture of 5% CO2 and 95% O2, and calcium imaging experiment was performed using a confocal microscope.

Data set [2] is described as follows: Verification of the arrival of 2-pentanone in cerebrospinal fluid (HPLC-MS of blood and cerebrospinal fluid after inhalation). The class given is in vivo, rats. The protocol: The specific method for detecting the arrival of 2-pentanone in cerebrospinal fluid in this test example included the following: rats were given 2-pentanone for 3 min, then blood and cerebrospinal fluid were drawn, immediately sealed and centrifuged at high speed to pellet red blood cells. The obtained cerebrospinal fluid and blood samples were subjected to HPLC-MS detection. Prior to detection, 100 μL of samples was taken and added with 400 μL of acetonitrile. The protein was separated by vortex and centrifuged at 14000 rpm for 10 min, and 100 μL of supernatant was used for HPLC-MS detection. […] It was confirmed by high performance liquid chromatography-mass spectrometry (HPLC-MS) that 2-pentanone could reach cerebrospinal fluid through blood rapidly (3 min) after inhaled by animals, and the concentration in cerebrospinal fluid decreased rapidly within 3-5 min after the inhalation was stopped.

The target of data set [3] is T1, specific receptor Or35a and the specific receptor Or83b. Nature of the data set: Patch clamp experiment (whole-cell recordings) in neurons of mouse brain slices expressing the specific receptor of 2-pentanone. The class given is cell-based. The conditions noted are these: addition of 2-pentanone, 300 μm brain slices of C57 mice injected with Or35a/Or83b overexpression virus, FIG. 4B. The protocol:
2. Patch clamp experiment: Adult C57 mice were anesthetized, fixed on a stereotaxic apparatus, and operated to expose the brain surface of the mice (1.5 mm behind the bregma, 1 mm aside, and injection depth of 2 mm). The overexpression virus (1 μl) constructed in Example 1 was injected into the mouse brain using a microinjector. After 2 weeks of feeding, the brains of mice were removed. The brain tissues at and near the injection site were cut into 300 μm tissue slices using a vibrating microtome and placed in artificial cerebrospinal fluid with a mixture of 5% CO2 and 95% 02, and after 1 h of incubation, the patch clamp experiment was performed. Using an Axon 700B amplifier, under infrared visualization, neurons with smooth surfaces and clear contours were selected for sealing, and whole-cell recordings were performed.
On the technique in general: In patch-clamp work, channel activity is measured electrically.

Each structure is given as a SMILES string.

Take `CCCC(C)=O` [2-pentanone]: in data set [1], the “intracellular calcium ion concentration” value is given as “significantly increased”. For the same molecule, the “time to reach cerebrospinal fluid through blood after inhalation” value in data set [2] (rats given 2-pentanone for 3 min by inhalation, HPLC-MS of cerebrospinal fluid) came to 3 min. Also, the “time within which the concentration in cerebrospinal fluid decreased rapidly after the inhalation was stopped” value in data set [2] (rats, after inhalation was stopped, HPLC-MS) lay in the range of 3 to 5 min. The neuronal firing rate result in data set [3] is given as “significantly increased”.
